Experimental data: US11963939B2, “Use of N-acetylcysteine to treat central nervous system disorders” (Neuronasal, Inc., priority 2017, dated 2024)

Tests used:
[1] = Total iron levels in brain of ICH mice by X-ray fluorescence; type: in vivo, mouse; settings: 7 days
Text: In vivo metal distribution imaging analysis by X-ray fluorescence: Seven days following collagenase-induced ICH, mice were euthanized and perfused with trace metal-free PBS. The brains were removed from the mice and flash frozen. Tissue samples were cut into 20 μm-thick sections and deposited onto 4 μm-thick Ultralene® films. The iron and zinc contents of the tissue samples were imaged using X-ray fluorescence microscopy (XFM). X-ray fluorescence spectra were collected using an X-ray excitation energy of 11 keV and a beam size of 9 μm (vertical)×17 μm (horizontal) in 15-μm steps, with an integration time of 7 sec/pixel. The intensity for each metal was quantified by integrating the area under the curve for the respective peak in the XRF spectrum (iron Kα=6405 eV and zinc Kα=8637 eV).
National Institute of Standards and Technology thin film standard reference materials 1832 and 1833 were used to calculate concentrations and to normalize for any differences between the multiple beam time runs required to collect the data. Molar concentrations were determined by dividing the […] values by the product of the volume of X-ray beam on the sample (area×thickness of the sample), the density of tissue (estimated to be 0.9 g/cm^3), and the molecular weight of the element.
The ability of NAC to affect total metal levels in the brain was evaluated. […]

lipid protein adducts = assay: Hemin-induced lipid protein adduct formation (Bt-AA, streptavidin-HRP Western blot) in primary neurons; type: cell-based, mouse
Method: Electrophilic attack by ALOX5 products could alter cellular protein-mediated signaling to trigger cell death. Arachidonic acid (AA) tagged with biotin (Bt-AA) was used to monitor the formation of covalent protein adducts. To test whether hemin was sufficient to catalyze the formation of protein-reactive lipid species, primary neurons were treated with hemin at concentrations of 5 μM-50 μM for 4 h. Lipid protein adducts were detected by Western blots probed with Streptavidin-HRP. Bt-AA incorporation into protein increased with increasing concentrations of hemin, and significant lipid protein adducts were detected at 50 μM hemin. […] The blot is representative from replicates of three experiments. The arrow indicates the decrease in lipid protein adduct formation.

recombinant ALOX5 = target: T1, recombinant ALOX5 (Homo sapiens, UniProt P09917); assay: Lipoxygenase UV/Vis-based IC50 assay with recombinant ALOX5; type: biochemical; settings: test tube assay
T1 sequence (P09917 1-674): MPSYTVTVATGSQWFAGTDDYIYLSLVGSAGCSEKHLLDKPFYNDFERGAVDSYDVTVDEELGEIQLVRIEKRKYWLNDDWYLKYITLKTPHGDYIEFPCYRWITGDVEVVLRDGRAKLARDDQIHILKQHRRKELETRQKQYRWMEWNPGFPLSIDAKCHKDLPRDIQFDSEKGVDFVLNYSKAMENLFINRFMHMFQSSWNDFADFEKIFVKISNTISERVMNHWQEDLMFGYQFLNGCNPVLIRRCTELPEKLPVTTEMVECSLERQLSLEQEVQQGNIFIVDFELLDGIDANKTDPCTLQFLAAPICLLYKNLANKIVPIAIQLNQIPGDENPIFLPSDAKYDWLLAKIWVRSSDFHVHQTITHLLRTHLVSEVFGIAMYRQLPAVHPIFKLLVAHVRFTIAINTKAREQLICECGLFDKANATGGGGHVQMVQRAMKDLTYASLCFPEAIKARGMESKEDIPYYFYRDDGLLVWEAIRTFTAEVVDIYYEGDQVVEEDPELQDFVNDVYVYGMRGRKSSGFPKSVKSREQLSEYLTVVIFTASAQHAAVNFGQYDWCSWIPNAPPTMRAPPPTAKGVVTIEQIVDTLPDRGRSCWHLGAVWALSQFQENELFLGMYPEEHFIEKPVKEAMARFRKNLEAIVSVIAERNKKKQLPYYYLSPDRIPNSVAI
Method: Lipoxygenase UV/Vis-based IC50 assay: Inhibition potencies were determined by following the formation of conjugated diene products, 5-HpETE [ε=27000 M^−1 cm^−1 for AA turnover) at 234 nm using a UV/Vis spectrophotometer. All reaction mixtures were 2 mL in volume, and the reaction mixtures were constantly stirred using a magnetic stir bar at room temperature (23° C.). All reactions were carried out in a buffer containing 200 μM ATP and 10 μM AA. The AA concentration of a sample was verified by full turnover with soybean-1 lipoxygenase and quantifying the product concentration. Inhibitors were stored in DMSO at −20° C. Enzymatic reactions were initiated by adding approximately 100 nM-300 nM ammonium sulfate-precipitated wildtype enzyme. IC50 values were obtained by determining the enzymatic rate at a minimum of five inhibitor concentrations, plotting the enzymatic rate against inhibitor concentration, and performing a hyperbolic saturation curve fit. Inhibitor concentrations were assayed in duplicate or triplicate.
Significance was determined by two-way ANOVA and Bonferroni's post hoc test.

## CC(=O)N[C@@H](CS)C(=O)O [NAC, N-acetylcysteine]
[1]
  Iron levels and iron distribution in brain following ICH: no effect on iron levels or iron distribution
Lipid protein adducts; non-protective doses: NAC 0.1 mM, vitamin E 1 μM, zileuton 1 μM
  AA-protein adduct formation: did not decrease AA-protein adduct formation
Lipid protein adducts; protective doses: NAC 1 mM, vitamin E 10 μM, zileuton 10 μM
  Lipid protein adduct formation: decreased lipid protein adduct formation
Recombinant ALOX5
  Inhibition of ALOX5 activity: did not inhibit ALOX5 activity
